Patent publication US20080153795A1, “Medicaments and methods for wound healing” (RENOVO LIMITED, priority 2006, published 2008)

Key:
[1] = test system: human punch biopsy wounds; assay: Human punch biopsy wounds, re-epithelialisation by histology; type: in vivo; details: 100 μl intradermal 10 minutes before wounding, 3 mm punch biopsy
From the text: Healthy male and post-menopausal female volunteers were chosen as the subjects of the study. 44 healthy subjects were recruited to the study, of whom, 40 were healthy males (aged 18-75 years) and 4 were post-menopausal females (aged 53-69 years). The average age of subjects recruited to this study was 42 years. The post-menopausal status of female subjects was confirmed by quantification of serum levels of oestradiol and follicle stimulating hormone (FSH). Serum levels of oestradiol were required to be <90 pmol/L, and follicle stimulating hormone levels >31 IU/L.
Each subject had three wounds treated with active drug, one corresponding to each of three concentrations of the medicaments produced; a fourth wound was treated with placebo control. The test medicaments and placebo control were each administered intradermally, as a single dose, at a volume of 100 μl per wound site (the upper, inner aspect of each arm), 10-minutes before wounding.
Subjects received 3 mm punch biopsies at the sites where the medicaments had been administered. After wounding, all sites received moist wound healing dressings (Standard Care).
Biopsy sites were excised, using a 5 mm punch biopsy, three days after wounding. Excised wounds were preserved for histological assessment of re-epithelialisation by image analysis. All histological assessments of early wound healing events were made using preserved 5 micron-thickness wound sections taken from the widest part of each excised biopsy site. Sections were stained with Haematoxylin and Eosin to aid visualisation of structural features, and measurements made using image analysis software. The distance traveled by the epithelium is derived from two histological measurements: the freehand total wound diameter and the freehand non-epithelialised wound diameter. […] Percentage re-epithelialisation for the new epithelium was calculated as a proportion of the total wound diameter. The average percentage re-epithelialisation value was calculated from the 44 wounds of each treatment group.

[2] = application of 100 μg in a gel to an epidermal surface, six hours from application; cited from earlier work

Row | Compound | re-epithelialisation three days after wounding ([1]; 0.02 μg/100 μl (0.00002%) medicament) [%] | re-epithelialisation three days after wounding ([1]; 0.1 μg/100 μl (0.0001%) medicament) [%] | re-epithelialisation three days after wounding ([1]; 0.2 μg/100 μl (0.0002%) medicament) [%] | applied oestradiol found in the skin or having passed through the skin [2] [µg]
1 | C[C@]12CC[C@@H]3c4ccc(O)cc4CC[C@H]3[C@@H]1CC[C@@H]2O [17β-oestradiol] | 37.4 | 42.3 | 42.6 | 
2 | C[C@]12CC[C@@H]3c4ccc(O)cc4CC[C@H]3[C@@H]1CC[C@@H]2O [oestradiol] |  |  |  | 15.7
